Data from patent US9809587B2, “Pesticidally active heterocyclic derivatives with sulphur containing substituents” (Syngenta Participations AG, priority 2014, dated 2017).

Columns and labels:
Format in all cases: in vivo
[1] = tested on: Bemisia tabaci (Cotton White Fly); test: Bemisia tabaci (cotton white fly), sprayed cotton leaf discs; conditions: foliar, 144 h, application rate of 200 ppm, adult white flies on cotton leaf discs, 6 days after incubation
Experimental: Example B1: Bemisia tabaci (Cotton White Fly)
Cotton leaf discs were placed on agar in 24-well microtiter plates and sprayed with aqueous test solutions prepared from 10′000 ppm DMSO stock solutions. After drying the leaf discs were infested with adult white flies. The samples were checked for mortality 6 days after incubation.

[2] = tested on: Euschistus heros (Neotropical Brown Stink Bug); test: Euschistus heros (neotropical brown stink bug), sprayed soybean leaf; conditions: 120 h, application rate of 200 ppm, N-2 nymphs on soybean leaf, 5 days after infestation
Experimental: Example B3: Euschistus heros (Neotropical Brown Stink Bug)
Soybean leaf on agar in 24-well microtiter plates were sprayed with aqueous test solutions prepared from 10′000 ppm DMSO stock solutions. After drying the leaf were infested with N-2 nymphs. The samples were assessed for mortality in comparison to untreated samples 5 days after infestation.

[3] = tested on: Myzus persicae (Green Peach Aphid); test: Myzus persicae (green peach aphid), sprayed sunflower leaf discs; conditions: foliar, 144 h, application rate of 200 ppm, mixed ages on sunflower leaf discs, 6 days after infestation
Experimental: Example B4: Myzus persicae (Green Peach Aphid)
(§1) Sunflower leaf discs were placed on agar in a 24-well microtiter plate and sprayed with aqueous test solutions prepared from 10′000 ppm DMSO stock solutions. After drying, the leaf discs were infested with an aphid population of mixed ages. The samples were assessed for mortality 6 days after infestation.

[4] = tested on: Myzus persicae (Green Peach Aphid); test: Myzus persicae (green peach aphid), roots of pea seedlings in test solution; conditions: 144 h, test rate of 24 ppm, roots of infested pea seedlings in test solution, 6 days
Experimental: Example B5: Myzus persicae (Green Peach Aphid)
Roots of pea seedlings infested with an aphid population of mixed ages were placed directly in the aqueous test solutions prepared from 10′000 DMSO stock solutions. The samples were assessed for mortality 6 days after placing seedlings in test solutions.

[5] = tested on: Plutella xylostella (Diamond Back Moth); test: Plutella xylostella (diamond back moth), treated artificial diet; conditions: 120 h, application rate of 200 ppm, L2 larvae on artificial diet, 5 days after infestation, read-out: effect in at least one of the two categories (mortality or growth inhibition)
In short: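 Artificial diet treated with aqueous dilutions of DMSO stocks (10′000 ppm stock), dried, then infested with 10-15 L2 larvae per well. Mortality and growth inhibition assessed versus untreated controls 5 days after infestation.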

[6] = tested on: Spodoptera littoralis (Egyqptian Cotton Leaf Worm); test: Spodoptera littoralis (Egyptian cotton leaf worm), sprayed cotton leaf discs; conditions: foliar, 72 h, application rate of 200 ppm, L1 larvae on cotton leaf discs, 3 days after infestation
In short: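 Cotton leaf discs on agar were sprayed with aqueous dilutions made from 10′000 ppm DMSO stocks, then infested after drying with five L1 larvae. Mortality, anti-feedant effect and growth inhibition were scored against untreated discs 3 days after infestation. Control means at least one of these exceeds the untreated sample.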

[7] = tested on: Thrips tabaci (Onion Thrips); test: Thrips tabaci (onion thrips), sprayed sunflower leaf discs; conditions: foliar, 144 h, application rate of 200 ppm, mixed ages on sunflower leaf discs, 6 days after infestation
Experimental: Example B10: Thrips tabaci (Onion Thrips)
as §1, with “in” for “in a”, “plates” for “plate”, “drying” for “drying,”, “a thrips” for “an aphid”

[8] = tested on: Frankliniella occidentalis (Western Flower Thrips); test: Frankliniella occidentalis (western flower thrips), sprayed sunflower leaf discs; conditions: foliar, 168 h, application rate of 200 ppm, mixed ages on sunflower leaf discs, 7 days after infestation
Experimental: Example B11: Frankliniella occidentalis (Western Flower Thrips)
as §1, with “in” for “in a”, “plates” for “plate”, “[…]” for “10′000 ppm”, “drying” for “drying,”, “a Frankliniella” for “an aphid”, “7” for “6”

[9] = tested on: Diabrotica balteata (Corn Root Worm); test: Diabrotica balteata (corn root worm), sprayed maize sprouts; conditions: 96 h, application rate of 200 ppm, L2 larvae on maize sprouts, 4 days after infestation
Experimental: Example B2: Diabrotica balteata (Corn Root Worm)
Maize sprouts, placed on an agar layer in 24-well microtiter plates were treated with aqueous test solutions prepared from 10′000 ppm DMSO stock solutions by spraying. After drying, the plates were infested with L2 larvae (6 to 10 per well). The samples were assessed for mortality and growth inhibition in comparison to untreated samples 4 days after infestation.

[10] = tested on: Spodoptera littoralis (Egyqptian Cotton Leaf Worm); test: Spodoptera littoralis (Egyptian cotton leaf worm), compound in agar taken up by lettuce roots; conditions: 144 h, test rate of 12.5 ppm, uptake by lettuce roots from agar, 6 days after infestation, read-out: effect in at least one of the three categories (mortality, anti-feedancy, or growth inhibition)
In short: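 Compound mixed into agar from a 10′000 ppm DMSO stock and taken up over 7 days by lettuce roots; cut leaves then infested with Spodoptera eggs. Mortality, anti-feedant effect and growth inhibition scored against untreated samples 6 days after infestation.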

[11] = tested on: Aedes aegypti (Yellow Fever Mosquito); test: Activity against Aedes aegypti (yellow fever mosquito), dried deposits in tissue culture plates; conditions: application rate of 200 ppm in ethanol, adult females, after 48 h
Experimental: Example B12: Activity Against Aedes aegypti (Yellow Fever Mosquito)
Test solutions, at an application rate of 200 ppm in ethanol, were applied to 12-well tissue culture plates. Once the deposits were dry, five, two to five days old adult female Aedes aegypti were added to each well, and sustained with a 10% sucrose solution in a cotton wool plug. Assessment of knockdown was made one hour after introduction, and mortality was assessed at 24 and 48 hours after introduction.
The following compounds gave at least 80% control of Aedes aegypti after 48 h: […]

CCS(=O)(=O)c1cc(-c2cncnc2)cnc1-c1nc2cc(C(F)(F)F)ncc2n1C [Compound P8]
≥ 80%: mortality at 200 ppm [1] | mortality at 200 ppm [2] | mortality at 200 ppm [3] | mortality at 24 ppm [4] | percent effect (mortality or growth inhibition) at 200 ppm [5] | percent control (mortality, anti-feedant effect or growth inhibition) at 200 ppm [6] | mortality at 200 ppm [7] | mortality at 200 ppm [8]

CCS(=O)(=O)c1cc(-c2ncc(Cl)cn2)cnc1-c1nc2cc(C(F)(F)F)ncc2n1C [Compound P11]
≥ 80%: mortality at 200 ppm [1] | mortality at 200 ppm [9] | mortality at 200 ppm [2] | mortality at 200 ppm [3] | percent effect (mortality or growth inhibition) at 200 ppm [5] | percent control (mortality, anti-feedant effect or growth inhibition) at 200 ppm [6] | percent control (mortality, anti-feedancy or growth inhibition) at 12.5 ppm [10] | mortality at 200 ppm [7] | mortality at 200 ppm [8] | pest or weed control at 200 ppm [11]

CCS(=O)(=O)c1cc(-n2cc(Cl)cn2)cnc1-c1nc2cc(C(F)(F)F)ncc2n1C [Compound P16, 2-[5-(4-chloropyrazol-1-yl)-3-ethylsulfonyl-2-pyridyl]-3-methyl-6-(trifluoromethyl)imidazo[4,5-c]pyridine]
≥ 80%: mortality at 200 ppm [1] | mortality at 200 ppm [9] | mortality at 200 ppm [2] | mortality at 200 ppm [3] | percent effect (mortality or growth inhibition) at 200 ppm [5] | percent control (mortality, anti-feedant effect or growth inhibition) at 200 ppm [6] | percent control (mortality, anti-feedancy or growth inhibition) at 12.5 ppm [10] | mortality at 200 ppm [7] | mortality at 200 ppm [8] | pest or weed control at 200 ppm [11]

CCS(=O)(=O)c1cc(-n2cc(Br)cn2)cnc1-c1nc2cc(C(F)(F)F)ncc2n1C [Compound P17]
≥ 80%: mortality at 200 ppm [1] | mortality at 200 ppm [9] | percent effect (mortality or growth inhibition) at 200 ppm [5] | percent control (mortality, anti-feedant effect or growth inhibition) at 200 ppm [6] | mortality at 200 ppm [7] | mortality at 200 ppm [8] | pest or weed control at 200 ppm [11]

CCS(=O)(=O)c1cc(-c2ccccn2)cnc1-c1nc2cc(C(F)(F)F)ncc2n1C [Compound P18]
≥ 80%: mortality at 200 ppm [2] | mortality at 200 ppm [3] | mortality at 24 ppm [4] | percent effect (mortality or growth inhibition) at 200 ppm [5] | percent control (mortality, anti-feedant effect or growth inhibition) at 200 ppm [6] | percent control (mortality, anti-feedancy or growth inhibition) at 12.5 ppm [10] | mortality at 200 ppm [8] | pest or weed control at 200 ppm [11]

CCS(=O)(=O)c1cc(-c2ccc(C(F)(F)F)cn2)cnc1-c1nc2cc(C(F)(F)F)ncc2n1C [Compound P19]
≥ 80%: mortality at 200 ppm [1] | mortality at 200 ppm [9] | mortality at 200 ppm [2] | mortality at 200 ppm [3] | percent effect (mortality or growth inhibition) at 200 ppm [5] | percent control (mortality, anti-feedant effect or growth inhibition) at 200 ppm [6] | percent control (mortality, anti-feedancy or growth inhibition) at 12.5 ppm [10] | mortality at 200 ppm [8] | pest or weed control at 200 ppm [11]

CCS(=O)(=O)c1cc(-c2ccc(Cl)cn2)cnc1-c1nc2cc(C(F)(F)F)ncc2n1C [Compound P20]
≥ 80%: mortality at 200 ppm [1] | mortality at 200 ppm [9] | mortality at 200 ppm [2] | mortality at 200 ppm [3] | percent effect (mortality or growth inhibition) at 200 ppm [5] | percent control (mortality, anti-feedant effect or growth inhibition) at 200 ppm [6] | percent control (mortality, anti-feedancy or growth inhibition) at 12.5 ppm [10] | mortality at 200 ppm [7] | mortality at 200 ppm [8] | pest or weed control at 200 ppm [11]

CCS(=O)(=O)c1cc(-n2cc(C(F)(F)F)cn2)cnc1-c1nc2cc(C(F)(F)F)ncc2n1C [Compound P85]
≥ 80%: mortality at 200 ppm [1] | mortality at 200 ppm [9] | mortality at 200 ppm [2] | mortality at 200 ppm [3] | percent effect (mortality or growth inhibition) at 200 ppm [5] | percent control (mortality, anti-feedant effect or growth inhibition) at 200 ppm [6] | percent control (mortality, anti-feedancy or growth inhibition) at 12.5 ppm [10] | mortality at 200 ppm [7] | mortality at 200 ppm [8] | pest or weed control at 200 ppm [11]

CCS(=O)(=O)c1cc(-c2ccc(C#N)cn2)cnc1-c1nc2cc(C(F)(F)F)ncc2n1C [Compound P91]
≥ 80%: mortality at 200 ppm [1] | mortality at 200 ppm [9] | mortality at 200 ppm [2] | mortality at 200 ppm [3] | percent effect (mortality or growth inhibition) at 200 ppm [5] | percent control (mortality, anti-feedant effect or growth inhibition) at 200 ppm [6] | percent control (mortality, anti-feedancy or growth inhibition) at 12.5 ppm [10] | mortality at 200 ppm [7] | mortality at 200 ppm [8]

CCS(=O)(=O)c1cc(-c2cc(Cl)ccn2)cnc1-c1nc2cc(C(F)(F)F)ncc2n1C [Compound P92]
≥ 80%: mortality at 200 ppm [9] | mortality at 200 ppm [2] | mortality at 200 ppm [3] | percent effect (mortality or growth inhibition) at 200 ppm [5] | percent control (mortality, anti-feedant effect or growth inhibition) at 200 ppm [6] | percent control (mortality, anti-feedancy or growth inhibition) at 12.5 ppm [10] | mortality at 200 ppm [8] | pest or weed control at 200 ppm [11]

CCS(=O)(=O)c1cc(-c2cc(C#N)ccn2)cnc1-c1nc2cc(C(F)(F)F)ncc2n1C [Compound P93]
≥ 80%: mortality at 200 ppm [9] | mortality at 200 ppm [2] | mortality at 200 ppm [3] | percent effect (mortality or growth inhibition) at 200 ppm [5] | percent control (mortality, anti-feedant effect or growth inhibition) at 200 ppm [6] | percent control (mortality, anti-feedancy or growth inhibition) at 12.5 ppm [10] | mortality at 200 ppm [8] | pest or weed control at 200 ppm [11]

CCS(=O)(=O)c1cc(-n2cc(C#N)cn2)cnc1-c1nc2cc(C(F)(F)F)ncc2n1C [Compound P94]
≥ 80%: mortality at 200 ppm [1] | mortality at 200 ppm [9] | mortality at 200 ppm [2] | mortality at 200 ppm [3] | mortality at 24 ppm [4] | percent effect (mortality or growth inhibition) at 200 ppm [5] | percent control (mortality, anti-feedant effect or growth inhibition) at 200 ppm [6] | mortality at 200 ppm [7] | mortality at 200 ppm [8] | pest or weed control at 200 ppm [11]

CCS(=O)(=O)c1cc(-c2nccc(C(F)(F)F)n2)cnc1-c1nc2cc(C(F)(F)F)ncc2n1C [Compound P100]
≥ 80%: mortality at 200 ppm [1] | mortality at 200 ppm [9] | mortality at 200 ppm [2] | mortality at 200 ppm [3] | percent effect (mortality or growth inhibition) at 200 ppm [5] | percent control (mortality, anti-feedant effect or growth inhibition) at 200 ppm [6] | percent control (mortality, anti-feedancy or growth inhibition) at 12.5 ppm [10] | mortality at 200 ppm [7] | mortality at 200 ppm [8] | pest or weed control at 200 ppm [11]

CCS(=O)(=O)c1cc(-n2cnc(Cl)n2)cnc1-c1nc2cc(C(F)(F)F)ncc2n1C [Compound P106]
≥ 80%: mortality at 200 ppm [1] | mortality at 200 ppm [9] | mortality at 200 ppm [2] | mortality at 200 ppm [3] | mortality at 24 ppm [4] | percent effect (mortality or growth inhibition) at 200 ppm [5] | percent control (mortality, anti-feedant effect or growth inhibition) at 200 ppm [6] | mortality at 200 ppm [7] | mortality at 200 ppm [8]
